Test results published in patent EP0168181A1, “Cyclic amides” (IMPERIAL CHEMICAL INDUSTRIES PLC, priority 1984, dated 1986).

Test system: aldose reductase
Experiment: in vivo aldose reductase inhibition in streptozotocin-diabetic rats (residual sorbitol in sciatic nerve)
Conditions: oral dose necessary to reduce residual sorbitol level in sciatic nerve of dosed diabetic rat to level similar to normal undosed rat; dosed daily 2-5 days
Experimental: Thus, rats are made diabetic (as evidenced by severe glucosuria being present) by dosing with streptozotocin. The animals are then dosed daily with the test compound for 2-5 days. The animals are then killed 2-4 hours after the final dose and the eye lenses and/or sciatic nerves are removed. After a standard work-up procedure the residual sorbitol levels in each tissue are determined by gas liquid chromatography after conversion to the poly-trimethylsilyl derivatives. Inhibition of aldose reductase in vivo is then assessed by comparing the residual sorbitol levels in tissues from the dosed diabetic group of rats with those of an undosed group of diabetic rats and an undosed, normal group of rats.
In the above in vivo test, an effective dose (ED) may be defined as the oral dose necessary to reduce the residual sorbitol level in the sciatic nerve of a dosed rat to a level similar to that in sciatic nerve in a normal, undosed-rat.

Structure (SMILES)	oral ED
O=C1CC2(C(=O)N1)C(=O)N(Cc1ccc(Br)cc1F)c1c(F)cccc12 (single isomer, unassigned) [l'-(4-bromo-2-fluorobenzyl)-7'-fluoro-spiro[pyrrolidine-3,3'-indolinel-2,2',5-trione]	approximately 5.6 mg./kg.
O=C1CC2(C(=O)N1)C(=O)N(Cc1ccc(Br)cc1F)c1c(Cl)cccc12 (single isomer, unassigned) [1'-(4-bromo-2-fluorobenzyl)-7'-chloro-spiro[pyrrolidine-3,3'-indoline]-2,2'5-trione]	approximately 1.1 mg./kg.
